In ChEMBL document CHEMBL2150932, “Structure-activity relationships and molecular modeling of 1,2,4-triazoles as adenosine receptor antagonists” (ACS Med Chem Lett, 2012):

Legend:
[1] = molecular target: T1, Adenosine receptor A2a (Homo sapiens, UniProt P29274); test: Displacement of [3H]CGS21680 from human A2A adenosine receptor expressed in HEK293 cells after 60 mins by liquid scintillation counting; type: cell-based
[2] = molecular target: T2, Adenosine receptor A1 (Homo sapiens, UniProt P30542); test: Inhibition of human A1 adenosine receptor expressed in CHO cells after 60 mins by liquid scintillation counting; type: cell-based
T2 sequence (P30542 whole entry): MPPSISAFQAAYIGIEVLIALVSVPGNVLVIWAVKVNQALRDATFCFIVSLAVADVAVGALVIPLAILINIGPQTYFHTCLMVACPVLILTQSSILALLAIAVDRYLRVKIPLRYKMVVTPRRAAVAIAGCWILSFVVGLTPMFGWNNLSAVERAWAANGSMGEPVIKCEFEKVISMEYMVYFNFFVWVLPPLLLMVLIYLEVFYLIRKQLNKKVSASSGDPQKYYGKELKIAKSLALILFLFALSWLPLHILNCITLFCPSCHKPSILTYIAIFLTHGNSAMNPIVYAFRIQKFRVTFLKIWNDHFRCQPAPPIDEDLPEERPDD

[3] = molecular target: T3, Adenosine receptor A3 (Homo sapiens, UniProt P0DMS8); test: Displacement of […] from human A3 adenosine receptor expressed in CHO cells after 60 mins by liquid scintillation counting; type: cell-based
T3 sequence (P0DMS8 whole entry): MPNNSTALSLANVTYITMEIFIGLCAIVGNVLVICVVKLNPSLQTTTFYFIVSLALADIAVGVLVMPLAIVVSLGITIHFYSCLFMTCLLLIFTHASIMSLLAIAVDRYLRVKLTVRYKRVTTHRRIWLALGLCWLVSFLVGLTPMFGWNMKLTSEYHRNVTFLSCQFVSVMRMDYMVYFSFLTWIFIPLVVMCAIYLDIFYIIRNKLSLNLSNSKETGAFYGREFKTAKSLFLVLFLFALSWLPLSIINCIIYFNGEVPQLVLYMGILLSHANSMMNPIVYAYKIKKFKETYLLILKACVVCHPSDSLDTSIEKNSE

[4] = molecular target: T4, Adenosine receptor A2b (Homo sapiens) (UniProt P29275); test: Antagonist activity at human A2B adenosine receptor expressed in CHO cells assessed as inhibition of NECA-induced cAMP accumulation at 10 uM after 20 mins; type: functional, cell-based
T4 sequence (whole entry): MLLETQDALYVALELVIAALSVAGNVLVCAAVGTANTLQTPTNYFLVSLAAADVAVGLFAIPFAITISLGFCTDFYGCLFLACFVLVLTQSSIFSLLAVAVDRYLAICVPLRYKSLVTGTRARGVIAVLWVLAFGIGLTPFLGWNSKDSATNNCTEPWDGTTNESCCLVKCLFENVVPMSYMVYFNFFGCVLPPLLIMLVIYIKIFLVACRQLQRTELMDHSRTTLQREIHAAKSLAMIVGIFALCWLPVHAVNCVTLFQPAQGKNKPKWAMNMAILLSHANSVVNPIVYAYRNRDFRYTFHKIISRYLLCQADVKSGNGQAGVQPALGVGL

[5] = molecular target: T5, Adenosine receptor A1 (Homo sapiens) (UniProt P30542); test: Inhibition of human A1 adenosine receptor expressed in CHO cells at 10 uM after 60 mins by liquid scintillation counting; type: cell-based
T5 sequence (whole entry): T2 sequence (P30542 whole entry)

[6] = molecular target: T1, Adenosine receptor A2a; test: Displacement of [3H]CGS21680 from human A2A adenosine receptor expressed in HEK293 cells at 10 uM after 60 mins by liquid scintillation counting; type: cell-based
[7] = molecular target: T6, Adenosine receptor A3 (Homo sapiens) (UniProt P0DMS8); test: Displacement of […] from human A3 adenosine receptor expressed in CHO cells at 10 uM after 60 mins by liquid scintillation counting; type: cell-based
T6 sequence (whole entry): T3 sequence (P0DMS8 whole entry)

T1 sequence (P29274 whole entry): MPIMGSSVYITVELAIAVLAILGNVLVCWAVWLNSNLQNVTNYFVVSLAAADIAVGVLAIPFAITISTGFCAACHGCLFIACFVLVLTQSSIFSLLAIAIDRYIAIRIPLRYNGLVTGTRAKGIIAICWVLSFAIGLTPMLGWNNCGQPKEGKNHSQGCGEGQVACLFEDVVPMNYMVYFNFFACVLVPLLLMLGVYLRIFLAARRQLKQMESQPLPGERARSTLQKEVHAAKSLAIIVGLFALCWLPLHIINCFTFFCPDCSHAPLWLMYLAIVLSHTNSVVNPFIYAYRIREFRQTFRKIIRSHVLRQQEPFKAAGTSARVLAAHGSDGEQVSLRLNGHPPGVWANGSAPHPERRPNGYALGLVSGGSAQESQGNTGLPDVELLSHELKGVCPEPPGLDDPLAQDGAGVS

Row | Compound | Ki [1] [nM] | Ki [2] [µM] | Ki [3] [nM] | inhibition [4] [%] | inhibition [5] [%] | inhibition [6] [%] | inhibition [7] [%]
1 | Cc1ccc(-c2nnc(NC(=O)COc3ccccc3)[nH]2)cc1 | 3600 | 6.5 | 3200 | – | – | – | –
2 | O=C(COCc1ccccc1)Nc1nc(-c2ccccc2)n[nH]1 | 5000 | 8.1 | 4600 | 7 | – | – | –
3 | COc1ccccc1OCC(=O)Nc1nc(-c2ccc(C)cc2)n[nH]1 | – | – | – | -10 | 8 | 49 | –
4 | C[C@@H](Oc1ccc(Cl)cc1)C(=O)Nc1nc(-c2ccccc2)n[nH]1 | 4000 | 3.9 | 2500 | 51 | – | – | –
5 | C[C@@H](Sc1ccccc1)C(=O)Nc1nc(-c2ccccc2)n[nH]1 | – | – | – | 21 | – | – | –
6 | O=C(COc1ccccc1)Nc1nc(-c2ccc(F)cc2)n[nH]1 | 3500 | – | 1500 | -10 | 2 | – | –
7 | Cc1cccc(O[C@H](C)C(=O)Nc2nc(-c3ccccc3)n[nH]2)c1 | – | – | – | 18 | – | – | –
8 | Cc1ccc(-c2n[nH]c(NC(=O)COc3ccccc3F)n2)cc1 | – | – | – | 11 | 2 | 2 | 50
9 | CCC(=O)Nc1nc(-c2ccccc2)n[nH]1 | 2500 | – | 300 | 8 | 39 | – | –
10 | CC(C)(Oc1ccc(Cl)cc1)C(=O)Nc1nnc(-c2ccccc2)[nH]1 | 8800 | – | 500 | – | – | – | –
11 | C[C@@H](Oc1cccc(Cl)c1)C(=O)Nc1nc(-c2ccccc2)n[nH]1 | – | – | – | 28 | – | – | –
12 | Cc1ccccc1-c1n[nH]c(NC(=O)[C@@H](C)Oc2ccccc2)n1 | – | – | – | -3 | 6 | 26 | 48
13 | Cc1ccc(O[C@H](C)C(=O)Nc2nc(-c3ccco3)n[nH]2)cc1 | – | – | 5300 | – | 37 | 38 | –
14 | Cc1ccccc1OCC(=O)Nc1nc(-c2ccccc2)n[nH]1 | – | – | – | 13 | 16 | – | –
15 | COc1ccccc1NC(=O)Nc1nc(-c2ccccc2)n[nH]1 | – | – | – | 10 | 22 | – | –
16 | Cc1cccc(-c2n[nH]c(NC(=O)C(C)Oc3ccccc3)n2)c1 (stereo not drawn) | – | – | – | 5 | 8 | – | –
17 | Cc1cccc(-c2n[nH]c(NC(=O)[C@H](C)Oc3ccccc3)n2)c1 | – | – | – | – | 13 | 23 | 32
18 | CC(=O)Nc1nnc(-c2ccccc2)[nH]1 | – | – | 300 | – | – | – | –
19 | Cc1cc(C)cc(OCC(=O)Nc2nc(-c3ccccc3)n[nH]2)c1 | – | – | – | -5 | – | – | –
20 | Cc1ccccc1OCC(=O)Nc1nnc(-c2ccccc2)[nH]1 | 1700 | – | 1000 | – | – | – | –
21 | CCCC(=O)Nc1nnc(-c2ccccc2)[nH]1 | 1100 | 0.8 | 200 | – | – | – | –
22 | C[C@@H](Sc1ccccc1)C(=O)Nc1nnc(-c2ccccc2)[nH]1 | 2200 | 3.3 | 1900 | – | – | – | –
23 | O=C(Nc1nnc(-c2ccccc2)[nH]1)c1ccc(Cl)cc1 | 2800 | – | 200 | – | – | – | –
24 | C[C@@H](Oc1cccc(Cl)c1)C(=O)Nc1nnc(-c2ccccc2)[nH]1 | 1000 | 1.1 | 2600 | – | – | – | –
25 | O=C(COc1ccc2c(c1)CCC2)Nc1nc(-c2ccccc2)n[nH]1 | 3900 | – | 2200 | 9 | 46 | – | –
26 | Cc1cccc(-c2nnc(NC(=O)C(C)Oc3ccccc3)[nH]2)c1 (stereo not drawn) | 2000 | – | 5900 | – | – | – | –
